Values after ≈ are worked out from the molar mass of the structure shown.

In experiment [1] the test system is HUVEC. Nature of the experiment: Antiinflammatory activity in human HUVEC cells assessed as LPS induced VCAM-1 expression at 5 to 20 uM preincubated for 1 hrs followed by LPS stimulation and measured after 6 hrs by fluorescence analysis. In kind it is functional. Particulars: dose 5-20 µM, time 7 hrs.
Experiment [2] deals with HUVEC. Nature of the experiment: Antiinflammatory activity in human HUVEC cells assessed as TNFalpha induced VCAM-1 expression at 5 to 20 uM preincubated for 1 hrs followed by TNFalpha stimulation and measured after 6 hrs by fluorescence analysis. In kind it is functional. As to conditions: dose 5-20 µM, time 7 hrs.
Experiment [3] deals with HUVEC. Nature of the experiment: Antiinflammatory activity in human HUVEC cells assessed as TNFalpha induced NF-kappaB transactivation at 5 to 20 uM preincubated for 1 hrs followed by TNFalpha stimulation and measured after 6 hrs by fluorescence analysis. In kind it is functional. As to conditions: dose 5-20 µM, time 7 hrs.
Experiment [4] relates to HUVEC. Put plainly: Antiinflammatory activity in human HUVEC cells assessed as LPS induced NF-kappaB transactivation at 5 to 20 uM preincubated for 1 hrs followed by LPS stimulation and measured after 6 hrs by fluorescence analysis. As to conditions: dose 5-20 µM, time 7 hrs. The format is functional.
The subject of experiment [5] is RAW264.7. Put plainly: Antiinflammatory activity in mouse RAW264.7 cells assessed as inhibition of LPS-induced TNFalpha production. In kind it is functional, cell-based.
Experiment [6] deals with RAW264.7. Nature of the experiment: Antiinflammatory activity in mouse RAW264.7 cells assessed as inhibition of LPS-induced NO production. The format is functional, cell-based.
A short description of experiment [7]: Antiinflammatory activity in C57BL/6 mouse BMDC cells assessed as inhibition of imiquimod-induced IL-12 mRNA expression level at 10 uM and measured after 12 hrs by qpCR analysis. Particulars: C57BL/6, BMDC. The format is functional.
Experiment [8] is described as follows: Antiinflammatory activity in C57BL/6 mouse BMDC cells assessed as inhibition of imiquimod-induced IL-12 expression level at 10 uM and measured after 12 hrs by western blot analysis. As to conditions: C57BL/6, BMDC. The format is functional. (In general: A western blot detects proteins with antibodies after separation by electrophoresis.)
Experiment [9] is described as follows: Antiinflammatory activity in C57BL/6 mouse BMDC cells assessed as inhibition of imiquimod-induced IL-6 mRNA expression level at 10 uM and measured after 12 hrs by qpCR analysis. The format is functional. As to conditions: C57BL/6, BMDC.
The nature of experiment [10]: Antiinflammatory activity in C57BL/6 mouse BMDC cells assessed as inhibition of imiquimod-induced IL-6 expression level at 10 uM and measured after 12 hrs by western blot analysis. As to conditions: C57BL/6, BMDC. The format is functional.
Experiment [11] is described as follows: Antiinflammatory activity in C57BL/6 mouse BMDC cells assessed as inhibition of imiquimod-induced IL-1beta expression level at 10 uM and measured after 12 hrs by western blot analysis. As to conditions: C57BL/6, BMDC. In kind it is functional.
Experiment [12] is described as follows: Antiinflammatory activity in C57BL/6 mouse BMDC cells assessed as inhibition of imiquimod-induced IL-1beta mRNA expression level at 10 uM and measured after 12 hrs by qpCR analysis. The format is functional. Particulars: C57BL/6, BMDC.
The nature of experiment [13]: Antiinflammatory activity in human HAP1 cells assessed as inhibition of LPS-induced ROS production at 5 uM. The format is functional.
Experiment [14] relates to RAW264.7. Nature of the experiment: Antiinflammatory activity in mouse RAW264.7 cells assessed as inhibition of LPS-induced NO production for 24 hrs by colorimetric analysis. In kind it is functional, cell-based. As to conditions: RAW264.7, 24 h.
Experiment [15] can be described thus: Antiinflammatory activity in human HAP1 cells assessed as inhibition of LPS-induced iNOS expression at 5 uM. The format is functional.
A short description of experiment [16]: Antiinflammatory activity in human HAP1 cells assessed as inhibition of LPS-induced NF-kappaB activation at 5 uM. In kind it is functional.
A short description of experiment [17]: Anti-osteoclastogenic activity in human BMDC assessed in inhibition of RANKL mediated osteoclast differentiation. The format is functional, cell-based.
Experiment [18] is described as follows: Antiinflammatory activity in human HAP1 cells assessed as inhibition of LPS-induced NO production at 5 uM. In kind it is functional.
Experiment [19] in a line: Antiinflammatory activity in human HAP1 cells assessed as inhibition of LPS-induced p38 MAPK activation at 5 uM. The format is functional.
The next experiment concerns J774.1. Put plainly: Antiinflammatory activity in mouse J774.1 cells assessed as inhibition of LPS-induced NO production at 10 microg/ml incubated for 48 hrs by Griess reagent based analysis. The format is functional. In general terms: The Griess reaction detects nitrite, a stable product of nitric oxide.

As to `COc1cc(CC/C=C/C(=O)CCc2ccc(O)c(OC)c2)ccc1O`, the Activity with HUVEC [1] was determined as 17%; with HUVEC [2], 26%; in the experiment with HUVEC [3] it was 7%; with HUVEC [4] it was 8%.

As for `COc1cc([C@@H](O)[C@@H](O)[C@@H](O)C[C@H](O)CCc2ccc(O)cc2)ccc1O`, the results for the IC50 with RAW264.7 [5] and in the experiment on RAW264.7 [6] were over 100000 nM and 32.6 µg/mL (≈ 86.1 µM), respectively.

With `O=C(/C=C/C=C/c1ccc(O)cc1)CCc1ccc(O)cc1`, the inhibition at 10 µM came to 69% in experiment [7]; 31% in [8]; 61% in [9]; 58% in [10]; 56% in experiment [11]; 86% in [12].

Turning to `Oc1ccc(CC[C@@H](O)CC/C=C/c2ccccc2)cc1O`, the inhibition at 5 µM in experiment [13] was 90%; in experiment [15], 85%; in experiment [16], 52%; in experiment [18] it was 91%; in [19], 44%. Besides, the IC50 with RAW264.7 [14] is 420 nM; in [17], 325 nM.

Take `COc1cc(O)c([C@H]2C[C@H](CCc3ccc(O)cc3)O[C@@H](c3ccc(O)cc3)[C@H]2O)c(O)c1C(=O)/C=C/c1ccc(O)cc1`: in the experiment on J774.1, the inhibition at 10 µg/mL worked out at 37.6%.

The IC50 is the midpoint of a concentration-inhibition curve. The term inhibition denotes the relative decrease from the control value, in per cent.

(Values after ChEMBL document CHEMBL5233262, “Anti-inflammatory activity of naturally occuring diarylheptanoids - A review” (Bioorg Med Chem, 2021).)
